Results: ChEMBL document CHEMBL1131172 (J Med Chem, 1998)

What was measured:
Assay type in all cases: functional
NCI-H23 [1] = assay: inhibition of the growth of non-small-cell lung cancer (NCI-H23) cell line; settings: Homo sapiens
786-0 [2] = assay: inhibition of the growth of renal cancer(786-0) cell line; settings: Homo sapiens
SF-539 [3] = assay: Inhibition of the growth of CNS cancer(SF-539) cell line at 0.01 uM; settings: Homo sapiens
786-0 [4] = assay: Inhibition of the growth of renal cancer(786-0) cell line at 0.01 uM; settings: Homo sapiens
HCT-15 [5] = assay: inhibition of the growth of colon cancer(HCT-15) cell line; settings: Homo sapiens
IGROV-1 [6] = assay: Inhibition of the growth of ovarian cancer(IGROVI) cell line at 0.01 uM; settings: Homo sapiens
NCI-H23 [7] = assay: Inhibition of the growth of non-small-cell lung cancer (NCI-H23) cell line at 0.01 uM; settings: Homo sapiens
RPMI-8226 [8] = assay: inhibition of the growth of leukemia (RPMI-8226) cell line; settings: Homo sapiens
HCT-116 [9] = assay: inhibition of the growth of colon cancer(HCT116) cell line; settings: Homo sapiens
OVCAR-8 [10] = assay: inhibition of the growth of ovarian cancer(OVCAR-8) cell line; settings: Homo sapiens
SF-268 [11] = assay: inhibition of the growth of CNS cancer(SF-268) cell line; settings: Homo sapiens
NCI/ADR-RES [12] = assay: Inhibition of the growth of breast cancer (MCF7/ADR-RES) cell line at 0.01 uM; settings: Homo sapiens
SK-MEL-5 [13] = assay: inhibition of the growth of melanoma cancer (SK-MEL-5) cell line; settings: Homo sapiens
NCI-H460 [14] = assay: Inhibition of the growth of non-small-cell lung cancer (NCI-H460) cell line at 0.01 uM; settings: Homo sapiens
NCI-H322M [15] = assay: inhibition of the growth of non-small-cell lung cancer (NCI-H322M) cell line; settings: Homo sapiens
NCI-H460 [16] = assay: inhibition of the growth of non-small-cell lung cancer (NCI-H460) cell line; settings: Homo sapiens
SR [17] = assay: Inhibition of the growth of leukemia(SR) cell line at 0.01 uM; settings: Homo sapiens
MOLT-4 = assay: inhibition of the growth of leukemia (MOLT-4) cell line; settings: Homo sapiens
NCI-H322M [18] = assay: Inhibition of the growth of non-small-cell lung cancer (NCI-H322M) cell line at 0.01 uM; settings: Homo sapiens
SNB-19 [19] = assay: inhibition of the growth of CNS cancer(SNB-19) cell line; settings: Homo sapiens
UO-31 [20] = assay: inhibition of the growth of renal cancer(UO-31) cell line; settings: Homo sapiens
SNB-19 [21] = assay: Inhibition of the growth of CNS cancer(SNB-19) cell line at 0.01 uM; settings: Homo sapiens
MDA-MB-435 [22] = assay: Inhibition of the growth of breast cancer (MDA-MB-435) cell line at 0.01 uM; settings: Homo sapiens
Dihydrofolate reductase = molecular target: T1, Dihydrofolate reductase (Rattus norvegicus, UniProt Q920D2); assay: Inhibitory activity against dihydrofolate reductase(DHFR) from rat liver
T1 sequence (Q920D2 whole entry): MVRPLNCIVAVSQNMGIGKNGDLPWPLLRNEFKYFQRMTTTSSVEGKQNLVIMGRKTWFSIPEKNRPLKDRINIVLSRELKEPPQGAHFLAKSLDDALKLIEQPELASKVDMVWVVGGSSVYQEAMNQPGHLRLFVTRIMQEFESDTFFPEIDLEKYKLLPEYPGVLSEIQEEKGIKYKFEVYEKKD

M14 [23] = assay: Inhibition of the growth of melanoma cancer (M14) cell line at 0.01 uM; settings: Homo sapiens
IGROV-1 [24] = assay: inhibition of the growth of ovarian cancer(IGROVI) cell line; settings: Homo sapiens
CAKI-1 [25] = assay: inhibition of the growth of renal cancer(CAKI-1) cell line; settings: Homo sapiens
DU-145 [26] = assay: Inhibition of the growth of prostate cancer(DU-145) cell line at 0.01 uM; settings: Homo sapiens
HCT-15 [27] = assay: Inhibition of the growth of colon cancer(HCT-15) cell line at 0.01 uM; settings: Homo sapiens
NCI-H522 [28] = assay: Inhibition of the growth of non-small-cell lung cancer (NCI-H522) cell line at 0.01 uM; settings: Homo sapiens
SF-295 [29] = assay: inhibition of the growth of CNS cancer(SF-295) cell line; settings: Homo sapiens
SK-MEL-5 [30] = assay: Inhibition of the growth of melanoma cancer (SK-MEL-5) cell line at 0.01 uM; settings: Homo sapiens
UO-31 [31] = assay: Inhibition of the growth of renal cancer(UO-31) cell line at 0.01 uM; settings: Homo sapiens
RPMI-8226 [32] = assay: Inhibition of the growth of leukemia (RPMI-8226) cell line at 0.01 uM; settings: Homo sapiens
SF-539 [33] = assay: inhibition of the growth of CNS cancer(SF-539) cell line; settings: Homo sapiens
NCI-H522 [34] = assay: inhibition of the growth of non-small-cell lung cancer (NCI-H522) cell line; settings: Homo sapiens
CAKI-1 [35] = assay: Inhibition of the growth of renal cancer(CAKI-1) cell line at 0.01 uM; settings: Homo sapiens
MDA-MB-435 [36] = assay: Inhibition of the growth of breast cancer (MDA-MB-435) cell line; settings: Homo sapiens
MDA-N [37] = assay: inhibition of the growth of breast cancer(MDA-N) cell line; settings: Homo sapiens
MCF7 = assay: inhibition of the growth of breast cancer (MCF-7) cell line; settings: Homo sapiens
SF-268 [38] = assay: Inhibition of the growth of CNS cancer(SF-268) cell line at 0.01 uM; settings: Homo sapiens
DU-145 [39] = assay: inhibition of the growth of prostate cancer(DU-145) cell line; settings: Homo sapiens
KM12 = assay: inhibition of the growth of colon cancer(KM-12) cell line. value in parentheses is percent inhibition at 0.01 uM; settings: Homo sapiens
OVCAR-8 [40] = assay: Inhibition of the growth of ovarian cancer(OVCAR-8) cell line at 0.01 uM; settings: Homo sapiens
SF-295 [41] = assay: Inhibition of the growth of CNS cancer(SF-295) cell line at 0.01 uM; settings: Homo sapiens
SR [42] = assay: inhibition of the growth of leukemia(SR) cell line; settings: Homo sapiens
NCI/ADR-RES [43] = assay: inhibition of the growth of breast cancer (MCF7/ADR-RES) cell line; settings: Homo sapiens
A549 [44] = assay: Inhibition of the growth of non-small-cell lung cancer (A549/ATCC) cell line at 0.01 uM; settings: Homo sapiens
MDA-N [45] = assay: Inhibition of the growth of breast cancer(MDA-N) cell line at 0.01 uM; settings: Homo sapiens
M14 [46] = assay: inhibition of the growth of melanoma cancer (M14) cell line; settings: Homo sapiens
[47] = molecular target: T2, Bifunctional dihydrofolate reductase-thymidylate synthase (Toxoplasma gondii, UniProt Q07422); assay: Inhibitory activity against dihydrofolate reductase(DHFR) from Toxoplasma gondii
T2 sequence (Q07422 whole entry): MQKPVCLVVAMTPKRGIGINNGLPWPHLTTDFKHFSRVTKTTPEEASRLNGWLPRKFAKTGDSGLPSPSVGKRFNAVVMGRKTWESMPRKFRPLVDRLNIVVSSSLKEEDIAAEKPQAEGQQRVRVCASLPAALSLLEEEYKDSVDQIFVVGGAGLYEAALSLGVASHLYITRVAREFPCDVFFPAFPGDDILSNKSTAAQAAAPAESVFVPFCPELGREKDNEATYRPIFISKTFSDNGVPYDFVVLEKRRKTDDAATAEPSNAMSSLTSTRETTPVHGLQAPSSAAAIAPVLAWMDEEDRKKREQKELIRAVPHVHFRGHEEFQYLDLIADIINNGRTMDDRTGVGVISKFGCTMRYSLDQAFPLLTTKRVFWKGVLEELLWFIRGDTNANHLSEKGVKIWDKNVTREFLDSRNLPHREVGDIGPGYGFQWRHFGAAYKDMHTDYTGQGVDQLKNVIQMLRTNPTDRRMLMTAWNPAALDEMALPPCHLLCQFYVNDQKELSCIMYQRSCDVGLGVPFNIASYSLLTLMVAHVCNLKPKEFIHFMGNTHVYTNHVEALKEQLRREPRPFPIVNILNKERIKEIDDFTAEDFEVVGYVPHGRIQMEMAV

A549 [48] = assay: inhibition of the growth of non-small-cell lung cancer (A549/ATCC) cell line; settings: Homo sapiens
HCT-116 [49] = assay: Inhibition of the growth of colon cancer(HCT116) cell line at 0.01 uM; settings: Homo sapiens

GI50 (NCI-H23 [1]): < 10 nM
GI50 (786-0 [2]): < 10 nM
GI50 (HCT-15 [5]): < 10 nM
GI50 (RPMI-8226 [8]): < 10 nM
GI50 (HCT-116 [9]): < 10 nM
GI50 (OVCAR-8 [10]): < 10 nM
GI50 (SK-MEL-5 [13]): < 10 nM
GI50 (NCI-H322M [15]): < 10 nM
GI50 (NCI-H460 [16]): < 10 nM
GI50 (MOLT-4): 20 nM
IC50 (Dihydrofolate reductase): 9.9 nM
GI50 (NCI-H522 [34]): < 10 nM
GI50 (MDA-MB-435 [36]): < 10 nM
GI50 (MCF7): 30 nM
GI50 (DU-145 [39]): < 10 nM
GI50 (A549 [48]): < 10 nM
Structure (SMILES): CN(c1ccc2ccccc2c1)c1ccc2nc(N)nc(N)c2n1
inhibition at 0.01 µM (SF-539 [3]): 66%
inhibition at 0.01 µM (786-0 [4]): 54%
inhibition at 0.01 µM (IGROV-1 [6]): 65%
inhibition at 0.01 µM (NCI-H23 [7]): 63%
GI50 (SF-268 [11]): < 10 nM
inhibition at 0.01 µM (NCI/ADR-RES [12]): 100%
inhibition at 0.01 µM (NCI-H460 [14]): 79%
inhibition at 0.01 µM (SR [17]): 57%
inhibition at 0.01 µM (NCI-H322M [18]): 56%
GI50 (SNB-19 [19]): < 10 nM
GI50 (UO-31 [20]): < 10 nM
inhibition at 0.01 µM (SNB-19 [21]): 62%
inhibition at 0.01 µM (MDA-MB-435 [22]): 66%
inhibition at 0.01 µM (M14 [23]): 54%
GI50 (IGROV-1 [24]): < 10 nM
GI50 (CAKI-1 [25]): < 10 nM
inhibition at 0.01 µM (DU-145 [26]): 51%
inhibition at 0.01 µM (HCT-15 [27]): 69%
inhibition at 0.01 µM (NCI-H522 [28]): 60%
GI50 (SF-295 [29]): < 10 nM
inhibition at 0.01 µM (SK-MEL-5 [30]): 77%
inhibition at 0.01 µM (UO-31 [31]): 54%
inhibition at 0.01 µM (RPMI-8226 [32]): 66%
GI50 (SF-539 [33]): < 10 nM
inhibition at 0.01 µM (CAKI-1 [35]): 74%
GI50 (MDA-N [37]): < 10 nM
inhibition at 0.01 µM (SF-268 [38]): 52%
GI50 (KM12): 10 nM
inhibition at 0.01 µM (OVCAR-8 [40]): 95%
inhibition at 0.01 µM (SF-295 [41]): 63%
GI50 (SR [42]): < 10 nM
GI50 (NCI/ADR-RES [43]): < 10 nM
inhibition at 0.01 µM (A549 [44]): 65%
inhibition at 0.01 µM (MDA-N [45]): 75%
GI50 (M14 [46]): < 10 nM
IC50 [47]: 14.5 nM
inhibition at 0.01 µM (HCT-116 [49]): 85%
